Experimental data reported in the NIST ThermoML archive (doi:10.1016/j.jct.2019.02.011).
± gives the expanded uncertainty stated by the source.

Conditions: 298.15 K; 35000 kPa; Liquid; Vibrating tube method

| Structure (SMILES) | mass density [kg/m3] |
| --- | --- |
| CCO [ethanol] | 811.58 ± 0.61 |
| CO [methanol] | 815.2 ± 0.6 |
| CCCO [propan-1-ol] | 822.87 ± 0.61 |

Same assay, conditions: 298.15 K; 40000 kPa; Liquid; Vibrating tube method

| Structure (SMILES) | mass density [kg/m3] |
| --- | --- |
| COC(=O)OC [dimethyl carbonate] | 1096.04 ± 0.65 |
| CCO [ethanol] | 815.03 ± 0.63 |
| CO [methanol] | 818.33 ± 0.61 |
| CCCO [propan-1-ol] | 825.81 ± 0.62 |

Same assay, conditions: 303.15 K; 100 kPa; Liquid; Vibrating tube method

| Structure (SMILES) | mass density [kg/m3] |
| --- | --- |
| COC(=O)OC [dimethyl carbonate] | 1056.61 ± 0.56 |
| CCO [ethanol] | 781.19 ± 0.52 |
| CO [methanol] | 782.07 ± 0.51 |
| CCCO [propan-1-ol] | 795.62 ± 0.52 |

Same assay, conditions: 303.15 K; 5000 kPa; Liquid; Vibrating tube method

| Structure (SMILES) | mass density [kg/m3] |
| --- | --- |
| COC(=O)OC [dimethyl carbonate] | 1061.47 ± 0.57 |
| CCO [ethanol] | 785.47 ± 0.53 |
| CO [methanol] | 786.79 ± 0.52 |
| CCCO [propan-1-ol] | 799.57 ± 0.53 |

Same assay, conditions: 303.15 K; 10000 kPa; Liquid; Vibrating tube method

| Structure (SMILES) | mass density [kg/m3] |
| --- | --- |
| COC(=O)OC [dimethyl carbonate] | 1066.02 ± 0.57 |
| CCO [ethanol] | 789.66 ± 0.54 |
| CO [methanol] | 791.31 ± 0.53 |
| CCCO [propan-1-ol] | 803.13 ± 0.54 |

Same assay, conditions: 303.15 K; 15000 kPa; Liquid; Vibrating tube method

| Structure (SMILES) | mass density [kg/m3] |
| --- | --- |
| COC(=O)OC [dimethyl carbonate] | 1070.49 ± 0.58 |
| CCO [ethanol] | 793.71 ± 0.55 |
| CO [methanol] | 795.85 ± 0.54 |
| CCCO [propan-1-ol] | 806.69 ± 0.55 |

Same assay, conditions: 303.15 K; 20000 kPa; Liquid; Vibrating tube method

| Structure (SMILES) | mass density [kg/m3] |
| --- | --- |
| COC(=O)OC [dimethyl carbonate] | 1074.79 ± 0.59 |
| CCO [ethanol] | 797.54 ± 0.57 |
| CO [methanol] | 800.16 ± 0.56 |
| CCCO [propan-1-ol] | 810.14 ± 0.56 |

Same assay, conditions: 303.15 K; 25000 kPa; Liquid; Vibrating tube method

| Structure (SMILES) | mass density [kg/m3] |
| --- | --- |
| COC(=O)OC [dimethyl carbonate] | 1078.99 ± 0.6 |
| CCO [ethanol] | 801.26 ± 0.58 |
| CO [methanol] | 804.08 ± 0.57 |
| CCCO [propan-1-ol] | 813.48 ± 0.58 |

Same assay, conditions: 303.15 K; 30000 kPa; Liquid; Vibrating tube method

| Structure (SMILES) | mass density [kg/m3] |
| --- | --- |
| COC(=O)OC [dimethyl carbonate] | 1082.9 ± 0.62 |
| CCO [ethanol] | 804.81 ± 0.6 |
| CO [methanol] | 807.78 ± 0.58 |
| CCCO [propan-1-ol] | 816.64 ± 0.59 |

Same assay, conditions: 303.15 K; 35000 kPa; Liquid; Vibrating tube method

| Structure (SMILES) | mass density [kg/m3] |
| --- | --- |
| COC(=O)OC [dimethyl carbonate] | 1086.6 ± 0.63 |
| CCO [ethanol] | 808.29 ± 0.62 |
| CO [methanol] | 811.31 ± 0.6 |
| CCCO [propan-1-ol] | 819.75 ± 0.61 |

Same assay, conditions: 303.15 K; 40000 kPa; Liquid; Vibrating tube method

| Structure (SMILES) | mass density [kg/m3] |
| --- | --- |
| COC(=O)OC [dimethyl carbonate] | 1090.4 ± 0.64 |
| CCO [ethanol] | 811.43 ± 0.64 |
| CO [methanol] | 814.7 ± 0.61 |
| CCCO [propan-1-ol] | 822.6 ± 0.62 |

Same assay, conditions: 308.15 K; 100 kPa; Liquid; Vibrating tube method

| Structure (SMILES) | mass density [kg/m3] |
| --- | --- |
| COC(=O)OC [dimethyl carbonate] | 1049.91 ± 0.56 |
| CCO [ethanol] | 776.6 ± 0.52 |
| CO [methanol] | 777.09 ± 0.51 |
| CCCO [propan-1-ol] | 791.31 ± 0.52 |

Same assay, conditions: 308.15 K; 5000 kPa; Liquid; Vibrating tube method

| Structure (SMILES) | mass density [kg/m3] |
| --- | --- |
| COC(=O)OC [dimethyl carbonate] | 1054.84 ± 0.56 |
| CCO [ethanol] | 780.98 ± 0.53 |
| CO [methanol] | 781.85 ± 0.52 |
| CCCO [propan-1-ol] | 795.4 ± 0.53 |

Same assay, conditions: 308.15 K; 10000 kPa; Liquid; Vibrating tube method

| Structure (SMILES) | mass density [kg/m3] |
| --- | --- |
| COC(=O)OC [dimethyl carbonate] | 1059.69 ± 0.57 |
| CCO [ethanol] | 785.42 ± 0.54 |
| CO [methanol] | 786.63 ± 0.53 |
| CCCO [propan-1-ol] | 799.21 ± 0.54 |

Same assay, conditions: 308.15 K; 15000 kPa; Liquid; Vibrating tube method

| Structure (SMILES) | mass density [kg/m3] |
| --- | --- |
| COC(=O)OC [dimethyl carbonate] | 1064.3 ± 0.58 |
| CCO [ethanol] | 789.62 ± 0.56 |
| CO [methanol] | 791.23 ± 0.54 |
| CCCO [propan-1-ol] | 802.79 ± 0.55 |

Same assay, conditions: 308.15 K; 20000 kPa; Liquid; Vibrating tube method

| Structure (SMILES) | mass density [kg/m3] |
| --- | --- |
| COC(=O)OC [dimethyl carbonate] | 1068.73 ± 0.59 |
| CCO [ethanol] | 793.63 ± 0.57 |
| CO [methanol] | 795.58 ± 0.56 |
| CCCO [propan-1-ol] | 806.37 ± 0.57 |

Same assay, conditions: 308.15 K; 25000 kPa; Liquid; Vibrating tube method

| Structure (SMILES) | mass density [kg/m3] |
| --- | --- |
| COC(=O)OC [dimethyl carbonate] | 1073 ± 0.6 |
| CCO [ethanol] | 797.42 ± 0.59 |
| CO [methanol] | 799.85 ± 0.57 |
| CCCO [propan-1-ol] | 809.72 ± 0.58 |

Same assay, conditions: 308.15 K; 30000 kPa; Liquid; Vibrating tube method

| Structure (SMILES) | mass density [kg/m3] |
| --- | --- |
| COC(=O)OC [dimethyl carbonate] | 1077.1 ± 0.61 |
| CCO [ethanol] | 801.06 ± 0.6 |
| CO [methanol] | 803.73 ± 0.59 |
| CCCO [propan-1-ol] | 813.03 ± 0.6 |

Same assay, conditions: 308.15 K; 35000 kPa; Liquid; Vibrating tube method

| Structure (SMILES) | mass density [kg/m3] |
| --- | --- |
| COC(=O)OC [dimethyl carbonate] | 1080.78 ± 0.62 |
| CCO [ethanol] | 804.6 ± 0.62 |
| CO [methanol] | 807.42 ± 0.6 |
| CCCO [propan-1-ol] | 816.12 ± 0.61 |

Same assay, conditions: 308.15 K; 40000 kPa; Liquid; Vibrating tube method

| Structure (SMILES) | mass density [kg/m3] |
| --- | --- |
| COC(=O)OC [dimethyl carbonate] | 1084.38 ± 0.63 |
| CCO [ethanol] | 808.06 ± 0.64 |
| CO [methanol] | 811.08 ± 0.62 |
| CCCO [propan-1-ol] | 819.06 ± 0.63 |
